“Also recorded” adds a separate entry of the source.
What was measured:
[1] = system: Male Rj: NMRI mice; assay: Formalin paw test (late phase) in the mouse; type: in vivo; conditions: for Antinociception compared to gabapentin (584 μmol/kg; 100 mg/kg): late phase, at highest two doses (NTP-2014, NTP-2024) or highest dose (NTP-2026, Bumetanide)
Procedure, shortened: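 Male NMRI mice received an intraplantar injection of 5% formalin (25 μl) into the left hind paw. Licking of the injected paw was scored at 1-min intervals from 15 to 50 min, blind, with 10 mice per group. Treated groups were compared with vehicle by Mann-Whitney U test; gabapentin 100 mg/kg i.p. served as reference.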

[2] = system: Rat; assay: Cortical spreading depression (rat), IP administration; type: in vivo
[3] = Diuresis in rat (urine volume, sodium and potassium excretion); type: in vivo; conditions: for Diuresis as measured by increased urine output and Na+/K+ excretion: rat, through 8 hours post-dose
Procedure: (§1) The animals were fasted overnight prior to dosing and had no access to drinking water prior to any pretreatment. Food and water were withheld through the terminal sample collection or for the first 6 hours of blood sample collection, where applicable. Prior to test article administration all animals were pretreated with a single IP dose of PBx. At approximately 5 to 6 minutes prior to dosing all animals received a single oral (PO) gavage dose of 0.9% Sodium Chloride for Injection, USP, at a dose volume of 15 mL/kg. The vehicle, DMSO, and the test articles, NTP-2024 and NTP-2006, were administered via a single IP dose at a dose volume of 1 mL/kg. Cumulative urine volume, sodium excretion, and potassium excretion graphs are illustrated in FIGS. 27, 28, and 29.
as §1, with “Animals” for “The animals”, “PBX.” for “PBx.”, “mL/g.” for “mL/kg.”, “compounds (e.g., NTP-2014)” for “articles, NTP-2024 and NTP-2006,”, “mL/kg.” for “mL/kg. Cumulative urine volume, sodium excretion, and potassium excretion graphs are illustrated in FIGS. 27, 28, and 29.”
as §1, with “Animals” for “The animals”, “0.15” for “15”, “FIG. 27 illustrates cumulative” for “Cumulative”, “volume.” for “volume, sodium excretion, and potassium excretion graphs are illustrated in FIGS. 27, 28, and 29.”
as §1, with “PBX.” for “PBx.”, “FIG. 28 illustrates cumulative” for “Cumulative urine volume,”, “excretion.” for “excretion, and potassium excretion graphs are illustrated in FIGS. 27, 28, and 29.”
as §1, with “PBX.” for “PBx.”, “FIG. 29 illustrates cumulative” for “Cumulative urine volume, sodium excretion, and”, “excretion.” for “excretion graphs are illustrated in FIGS. 27, 28, and 29.”

[4] = system: Male CD-1 mice; assay: 52° C. warm water tail-flick test (acute nociceptive study); type: in vivo, mouse; conditions: for Activity in tail-flick test: all doses starting at 32 mg/kg (NTP-2014) or 56 mg/kg (NTP-2026, NTP-2024); for % Antinociception: A50 not determined
Description: Subjects: Male CD-1 (25-35 g, Charles River) were used for all studies. Mice were housed in groups of five in Plexiglas chambers with food and water available ad libitum. All animals were maintained on a 12 hr light/dark cycle (lights on at 7:00 AM) in a temperature- and humidity-controlled animal colony. The health status of the animals used in this study were examined on arrival. Only animals in good health were acclimatized to laboratory conditions and used in the study. The acclimation period to the vivarium was a minimum of 7 days. All animal experiments were performed under an approved protocol in accordance with institutional guidelines and in accordance with the Guide for the Care and Use of Laboratory Animals as adopted and promulgated by the National Institutes of Health.
Behavioral Testing: Efficacy of the test compounds were assessed using the 52° C. warm water tail-flick test. The latency to the first sign of a rapid tail-flick was taken as the behavioral endpoint (Jannsen, et al. 1963). Each mouse was first tested for baseline latency by immersing its tail in the water and recording the time to response. Mice not responding within 5 seconds were excluded from further testing. Test compounds were then injected and the mice were rested for thermal latencies at 10, 20, 30, 45, 60, 90, 120 and 180 minutes post-injection (if a drug effect dropped below 20% for the group average then the testing was halted for that group). Antinociception was calculated by the following formula: % Antinociception=100×(test latency−control latency)/(10-control latency). A maximum score was assigned (100%) to animals not responding within 10 seconds to avoid tissue damage.
Preparation of Test Materials: NTP-2014 (m.w. 420.52 for free base; lot number: 004JXS047) was dissolved in 0.2% hydroxypropylmethylcellulose (HPMC) in physiological saline to yield final concentrations of between 3.2 and 10 mg/ml (pH ˜7.4). NTP-2024 (m.w. 433.52 for free base; lot number: 024DGM048) was dissolved in 0.2% HPMC in physiological saline to yield final concentrations of between 5.6 and 18 mg/ml (pH ˜7.4). NTP-2026 (m.w. 462.61 for free base; lot number: 002JRA064) was first dissolved in 100% ETOH (10× solution) and then this stock solution was diluted to final concentrations of 5.6-10 mg/ml using 0.2% HPMC in physiological saline (pH ˜7.4). Final ETOH concentration was approximately 10%. Tween 80 (1-2 drops) was added to all solutions to aid in solubilization of compounds.
All groups contained n=8-10 mice.

[5] = i.p. 30 minutes before the test, 50 μmol/kg (NTP-2006 23.9, NTP-2024 21.7, NTP-1007 19.3, NTP-2014 21, NTP-2026 23.1 mg/kg)
[6] = i.p., 250 μmol/kg (NTP-2006 119, NTP-2024 108, NTP-1007 96.5, NTP-2014 105, NTP-2026 116 mg/kg)
[7] = i.p., 500 μmol/kg (NTP-2006 239, NTP-2024 217, NTP-1007 193, NTP-2014 210, NTP-2026 231 mg/kg)

Row | Compound | Decrease in pain, Formalin Paw Test (Mice) - Late Phase ([1]; at 50, 250, 500 μmol/kg) | Antinociception compared to gabapentin (584 μmol/kg; 100 mg/kg) [1] | Activity in tail-flick test ([4]; mice) | Licking Score (15 to 50 minutes post-formalin injection) % Change from Control [1, 5] | Licking Score (15 to 50 minutes post-formalin injection) % Change from Control [1, 6] | Licking Score (15 to 50 minutes post-formalin injection) % Change from Control [1, 7] | Diuresis as measured by increased urine output and Na+/K+ excretion [3] | Decrease in pain, Formalin Paw Test (Mice) - Late Phase ([1]; at 250, 500 μmol/kg) | other results
1 | CCCCNc1cc(C(=O)O)cc(S(N)(=O)=O)c1Oc1ccccc1 [Bumetanide, reference compound] | Significant decrease in pain at 50 (p < 0.05), 250 (p < 0.01), | 500 (p < 0.001 ) μmol/kg; 18.2, 91.1, 182 mg/kg; better |  |  |  |  |  |  | Decrease in CSD events ([2]; 10 and 30 mg/kg, p~0.05): CSD events (~30%) at 10 and 30; Excretion of urine, sodium and potassium (FIG. 33) ([3]; bumetanide PO 30 mg/kg + PBx): substantial excretion; Diuresis in rat ([3]; pre-treatment with inhibitor): diuresis evident
2 | CCCCN(CCCC)c1cc(C(=O)O)cc(S(N)(=O)=O)c1Oc1ccccc1 [NTP-2014, 3-Aminosulfonyl-5-N,N-dibutylamino-4-phenoxybenzoic acid] | Significant decrease in pain at 50 (p < 0.05), 250 | much better than gabapentin (584 μmol/kg; 100 mg/kg) | effective analgesic effects; also recorded: Significant activity in tail- | −38% | −99% | −90% | No diuresis as measured by increased urine output and Na+/K+ |  | % anti-nociception relative to high dose morphine ([4]; tail-flick test, mice, without behavioral observations): nociception equal to high; Change in CSD events ([2]; 10 mg/kg IP, p < 0.05): −38%; Change in CSD events ([2]; 50 mg/kg IP, p < 0.05): −37%; Change in CSD events ([2]; 75 mg/kg IP, p < 0.05): −47%; Urine output, sodium excretion and potassium excretion (FIG. 33) ([3]; NTP-2014 at 10, 50 or 100 mg/kg, PBx pretreated): does not differ appreciably from the vehicle control; also recorded: does not increase; also recorded: did not increase
3 | CCCCNc1cc(C(=O)NN2CCOCC2)cc(S(N)(=O)=O)c1Oc1ccccc1 [NTP-2024, N-Morpholinyl 3-Aminosulfonyl-5-N-butylamino-4-phenoxybenzamide] |  | (p < 0.05) μmol/kg; 108, 217 mg/kg; slightly less | Significant activity in tail- | −1% | −51% | −41% |  | Significant decrease in pain at 250 (p < 0.01), 500 | % Antinociception ([4]; 180 mg/kg): ~48%; Licking Score % Pain Decrease ([1]; 50 μmol/kg i.p.): 1%; Licking Score % Pain Decrease ([1]; 250 μmol/kg i.p.): 51%; Licking Score % Pain Decrease ([1]; 500 μmol/kg i.p.): 41%; Anti-inflammatory and analgesic effects in formalin paw test (FIG. 16) ([1]; 50, 250, 500 μmole/kg): show anti-inflammatory and analgesic effects; Decrease in CSD events ([2]; 300 mg/kg, co-administered general metabolic inhibitor (NS)): 32% decrease in CSD events at
4 | CCCCNc1cc(C(=O)N(C)CCCN(C)C)cc(S(N)(=O)=O)c1Oc1ccccc1 [NTP-2026, N-(3-(Dimethylamino)propyl)-N-methyl 3-Aminosulfonyl-5-N-butylamino-4-phenoxybenzamide] |  |  | Significant activity in tail- | no effects | −49% | −82% | No diuresis as measured by increased urine output and Na+/K+ | Significant decrease in pain at 250 (p < 0.01), 500 | % Antinociception ([4]; 56 mg/kg): ~25%; Decrease in CSD events ([2]; 10-75 mg/kg, p < 0.05): CSD events (~30-40%) at 10-75

— patent US9682928B2 (NeuroPro Therapeutics, Inc., priority 2009, dated 2017)
